Where a name gives a salt, the structure may show the parent alone.
System: esterase from porcine liver
Experiment: in vitro enzymatic degradation by esterase
Assay type: in vitro ADME
Conditions: 200 mg monomer, 50 units esterase, 24 hours, 37° C., 1H NMR
Method: The enzymatic degradation of these new monomers were compared to those of the oligomerized fatty acids. The monomers RAM, HSAM, HSAS, FAD, and FAT (200 mg) were mixed in a solution containing esterase (2 ml, containing 50 units of esterase from porcine liver, Sigma Chemical Company, St. Louis, Missouri) and were incubated for 24 hours at 37° C. The monomers or their degradation products were extracted with chloroform and analyzed by ^1 H NMR. […] The RAM, and HSAS monomers contained about 10% ricinoleic acid or 12-hydroxy stearic acid, respectively.

ricinoleic acid or 12-hydroxy stearic acid formed | SMILES
about 10% | CCCCCCC(CCCCCCCCCCC(=O)O)OC(=O)CCC(=O)O (centres unmarked) [HSAS, 12-hydroxy stearic acid succinate]
about 10% | CCCCCC[C@H](C/C=C\CCCCCCCC(=O)O)OC(=O)/C=C\C(=O)O [RAM, ricinoleic acid maleate]

Reference: patent US5473103A, “Biopolymers derived from hydrolyzable diacid fats” (Yissum Research Development Co. of the Hebrew University of …, priority 1993, dated 1995)
